The source of these data is patent US12643912B2, “Macrocyclic compounds, a process for their preparation and pharmaceutical compositions containing them” (LES LABORATOIRES SERVIER, priority 2020, dated 2026).

What is called EC50 is the midpoint of the concentration-response curve.

One assay concerns the target T1, Keap1 (A321-C624) (h) (Homo sapiens, UniProt Q14145).
T1 construct: His-Thromb-KEAP1(A321-C624) acquired from Novalix (batch PU-P01) was immobilized covalently by amine coupling; His tag (N); thrombin cleavage site (Thromb) (N); purchased Novalix batch PU-P01
As to the kind of experiment: Surface Plasmon Resonance binding assay to Kelch domain of KEAP1. The note with it: Biacore T200, 25° C., immobilized His-Thromb-KEAP1(A321-C624), single cycle kinetics, KD=kd/ka from 1:1 fit; read-out: Keap1 (A321-C624) (h) direct/SPR (KD). Summed up:
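His-Thromb-KEAP1(A321-C624) amine-coupled on CM5 chip to 1250 RU; amine blank reference. Run at 25° C in HEPES pH 7.4, 150 mM NaCl, 3 mM EDTA, 1 mM TCEP, 0.05% P20, 5% DMSO; 180 s association, 720 s dissociation, 50 μL/min. KD = kd/ka from 1:1 kinetic fit, double-referenced, DMSO solvent-corrected.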
On the technique in general: In SPR one partner is held on a chip, and binding of the other changes the refractive index at the surface.

Assay [1] relates to Nrf2 (Keap1-NRF2 nuclear translocation). As to the kind of experiment: U2OS translocation assay (PathHunter U2OS Keap1-NRF2 Nuclear Translocation Cell Line). The assay is classed as cell-based. The settings on record: Homo sapiens, U2OS, 3 h, read-out: CELLULAR U2OS EC50 (nM), U2OS Keap1-NRF2 nuclear translocation cells, 3 h incubation, luminescence, normalized between 1% DMSO and 10 μM andrographolide. Summed up: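 Enzyme-fragment complementation read-out: luminescence after 60 min of detection reagent at room temperature, following a 3 h, 37° C compound exposure of engineered U2OS Keap1-NRF2 translocation cells (1% FBS medium). Signal scaled from 1% DMSO basal to 10 μM andrographolide maximum.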

T1 sequence (Q14145 321-624): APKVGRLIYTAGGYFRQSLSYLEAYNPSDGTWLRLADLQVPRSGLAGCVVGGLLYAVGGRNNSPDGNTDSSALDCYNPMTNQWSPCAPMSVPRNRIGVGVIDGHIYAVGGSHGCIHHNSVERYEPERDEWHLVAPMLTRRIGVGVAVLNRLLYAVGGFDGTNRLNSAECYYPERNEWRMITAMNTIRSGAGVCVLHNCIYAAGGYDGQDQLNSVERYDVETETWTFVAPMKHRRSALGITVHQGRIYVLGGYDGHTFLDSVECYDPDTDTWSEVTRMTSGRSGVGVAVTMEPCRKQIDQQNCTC

`Cc1ccc2cc1[C@@H](C)N1Cc3cc(ccc3OS1(=O)=O)OCCC1(CCOCC1)Cn1nnc3c(C)c(ccc31)C2CC(=O)O` (stereo partly drawn) [Example 68, [(2R)-2,4,31-Trimethyl-27,27-dioxo-27λ^6-spiro[21,26-dioxa-27-thia-1,14,15,16-tetraazahexacyclo[20.5.3.1^3,70.1^9,130.0^12,160.0^25,29]dotriaconta-3(32),4,6,9(31),10,12,14,22,24,29-decaene-18,4′-oxan]-8-yl]acetic acid]: the Kd on Keap1 (A321-C624) (h) turned out to be 0.00896 µM. In addition, the concentration for a half-maximal effect (EC50) in assay [1] came out at 38.3 nM.
